Values joined by “and” are separate entries in the source; they are usually repeats but may differ in a detail not shown here. Equal values may be shown once. Where a name gives a salt, the structure may show the parent alone.
Key:
[1] = test system: Staphylococcus aureus MW2 delta-mecA (mecA-); assay: IC50 (growth, competition assay); details: cefoxitin: subinhibitory
How it was run: (§1)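 Pre-induced, 1:1-mixed fluorescent S. aureus MW2 mecA+ and ΔmecA strains were grown 20 h at 37 °C, 90% humidity, unshaken, in LB with a daily-set subinhibitory cefoxitin dose, in 1536-well plates. Compounds were given on five- or nine-point 2-fold gradients, in two dye-swapped replicates. DsRed (540/590) and GFP (485/520) were scaled per plate between single-strain control medians, with No Treatment then set to 0.5. Per-strain IC50 was the dose halving the No Treatment signal, or the maximal signal.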

[2] = test system: Staphylococcus aureus MW2 (mecA+); assay: IC50 (growth, competition assay); details: cefoxitin: subinhibitory
How it was run: as §1

| SMILES | IC50 ([1]; fluorescent label: DsRed) | IC50 ([1]; fluorescent label: GFP) [µM] | IC50 ([2]; fluorescent label: DsRed) | IC50 ([2]; fluorescent label: GFP) |
| --- | --- | --- | --- | --- |
| C#CCCCCCCCCCCCC(O)CC(O)CO.C=CCCCCCCCCCCCC(O)CC(O)CO (stereo not drawn) | < 9.85 µM | < 9.85 | 16.4 µM | 26.3 µM |
| CC(C)(C)c1nc(-c2cccc(NS(=O)(=O)c3c(F)cccc3F)c2F)c(-c2ccnc(N)n2)s1 | < 9.85 µM | < 9.85 | 35 µM | 79.2 µM |
| CCn1cc(C(=O)O)c(=O)c2cc(F)c(N3CCN(C)CC3)cc21 [PEFLOXACINE MESYLATE] | < 9.85 µM | < 9.85 | < 9.85 µM | < 9.85 µM |
| Cc1cc(CC(C)CC(C)(C)C)n(O)c(=O)c1 (stereo not drawn) [OCTOPIROX] | 89.5 µM | 70 | 120 µM | 106 µM |
| CCc1oc2ccccc2c1C(=O)c1cc(Br)c(O)c(Br)c1 [DESURIC] | < 9.85 µM | < 9.85 | < 9.85 µM | < 9.85 µM |
| C#CC[C@H](c1nc2cc(Cl)ccc2c(=O)n1Nc1ccccc1)N(CCCN)C(=O)c1cccc(Cl)c1F [ARQ 621] | 23.9 µM | 11.2 | 89.2 µM | 105 µM |
| Cc1nnc(SCC2=C(C(=O)O)N3C(=O)[C@@H](NC(=O)Cn4cnnn4)[C@H]3SC2)s1 [ANCEF] | < 9.85 µM | < 9.85 | 17.8 µM | 14.9 µM |
| O=c1[nH]cc(F)c(=O)[nH]1 [Adrucil (Fluorouracil)] | < 0.498 µM | < 0.498 | 1.76 µM | 1.78 µM |
| CCCCCCCCOc1ccccc1C(=O)Nc1ccc(C(=O)OCC[N+](C)(CC)CC)cc1 [Otilonium Bromide] | < 9.85 µM | < 9.85 | < 9.85 µM | < 9.85 µM |
| CC(=O)Oc1ccc(Cl)c2cccnc12 [SILITAL] | 15.6 µM | < 9.85 | 17.2 µM | 29.8 µM |
| CCN1CCN(c2cc3c(cc2F)c(=O)c(C(=O)O)cn3C2CC2)CC1 [BAYTRIL] | < 9.85 µM | < 9.85 | < 9.85 µM | < 9.85 µM |
| CC[C@@H](C(=O)[C@@H](C)[C@@H](O)[C@H](C)CCc1ccc(C)c(O)c1C(=O)O)[C@H]1O[C@](CC)([C@H]2CC[C@](O)(CC)[C@H](C)O2)C[C@@H]1C [BOVOTEC] | < 9.85 µM | < 9.85 | < 9.85 µM | < 9.85 µM |
| O=C1C(Cl)=C(Cl)C(=O)C(Cl)=C1Cl [CHLORANIL] | 16 µM | 17.3 | 67.1 µM | 83.8 µM |
| CCC(=O)O[C@H]1[C@H](O[C@@H]2[C@@H](C)[C@H](O[C@H]3C[C@@](C)(OC)[C@@H](O)[C@H](C)O3)[C@@H](C)C(=O)O[C@H](CC)[C@@](C)(O)[C@H](O)[C@@H](C)C(=O)[C@H](C)C[C@@]2(C)O)O[C@H](C)C[C@@H]1N(C)C [ILOSONE] | < 9.85 µM | < 9.85 | < 9.85 µM | 17 µM |
| CCn1cc(C(=O)O)c(=O)c2cnc(N3CCNCC3)nc21 [PIPEDAC] | 64.9 µM | 36.5 | 38 µM | 60.4 µM |
| O=C(O)c1ccc(Nc2ncc3c(n2)-c2ccc(Cl)cc2C(c2c(F)cccc2F)=NC3)cc1 [MLN8054] | 3.89 µM | 2.45 | 13.7 µM | 24.9 µM |
| O=C(O)c1ccc2cc(-c3ccc(O)c(C45CC6CC(CC(C6)C4)C5)c3)ccc2c1 [CD 437] | < 9.85 µM | < 9.85 | < 9.85 µM | < 9.85 µM |
| CCCCCCCCNC(C)C(O)c1ccc(SC(C)C)cc1 (stereo not drawn) [SULOCTIDIL] | 17.3 µM | 24.4 | 29.6 µM | 27.5 µM |
| Cc1cc(Nc2cc(N3CCN(C)CC3)nc(/C=C/c3ccccc3)n2)n[nH]1 [ENMD-2076] | 6.48 µM | 4.72 | 47.6 µM | 55.2 µM |
| CC[C@H]1OC(=O)[C@H](C)[C@@H](O[C@H]2C[C@@](C)(OC)[C@@H](O)[C@H](C)O2)[C@H](C)[C@@H](O[C@@H]2O[C@H](C)C[C@H](N(C)C)[C@H]2O)[C@](C)(O)C[C@@H](C)CN(C)[C@H](C)[C@@H](O)[C@]1(C)O [Azithromycin (Zithromax)] | 0.827 µM | 1.29 | 22.8 µM | 15.7 µM |
| CCCCCCNC(=O)n1cc(F)c(=O)[nH]c1=O [Carmofur] | < 9.85 µM | < 9.85 | < 9.85 µM | < 9.85 µM |
| COC1=CC(=O)C(O)=C/C1=C\C=C\c1ccccc1 [OBTUSAQUINONE] | < 9.85 µM | < 9.85 | < 9.85 µM | < 9.85 µM |
| CCC(C)(C)C(=O)O[C@H]1C[C@@H](C)C=C2C=C[C@H](C)[C@H](CC[C@@H]3C[C@@H](O)CC(=O)O3)[C@H]21 [ZOCOR] | 47.8 µM | 57.6 | 129 µM | 115 µM |

| SMILES | IC50 ([1]; fluorescent label: DsRed) | IC50 ([1]; fluorescent label: GFP) [µM] | IC50 ([2]; fluorescent label: DsRed) | IC50 ([2]; fluorescent label: GFP) |
| --- | --- | --- | --- | --- |
| Oc1ccc(Cl)c2cccnc12 [CLOXYQUIN] | 33.8 µM | < 9.85 | 26.9 µM | 89.7 µM |
| CO/N=C(\C(=O)N[C@@H]1C(=O)N2C(C(=O)O)=C(CSc3nnnn3C)CS[C@H]12)c1csc(N)n1 [CEFMAX] | < 9.85 µM | < 9.85 | < 9.85 µM | < 9.85 µM |
| COC(=O)C1=C(C)NC(C)=C(C(=O)OCC(C)C)C1c1ccccc1[N+](=O)[O-] (stereo not drawn) [Nisoldipine] | 12.7 µM | 7.55 | 63.1 µM | 99.2 µM |
| C=C1c2cccc(O)c2C(=O)C2=C(O)[C@]3(O)C(=O)C(C(N)=O)=C(O)[C@@H](N(C)C)[C@@H]3[C@@H](O)[C@H]12 [Methacycline hydrochloride (Physiomycine)] | < 0.498 µM | < 0.498 | 0.702 µM | 0.644 µM |
| CO/N=C(\C(=O)N[C@@H]1C(=O)N2C(C(=O)O)=C(COC(C)=O)CS[C@H]12)c1csc(N)n1 [CLAFORAN] | < 9.85 µM | < 9.85 | 15.6 µM | 15 µM |
| CCCCCCCCCCCCC[N+](C)(C)Cc1ccccc1 [ROCCAL] | < 9.85 µM | < 9.85 | < 9.85 µM | < 9.85 µM |
| Cc1cc(N)c2ccccc2[n+]1CCCCCCCCCC[n+]1c(C)cc(N)c2ccccc21 [Dequalinium Chloride] | < 9.85 µM | < 9.85 | < 9.85 µM | 11.3 µM |
| Cn1nnnc1SCC1=C(C(=O)O)N2C(=O)[C@@H](NC(=O)[C@H](O)c3ccccc3)[C@H]2SC1 [CEFAMANDOLE SODIUM] | < 9.85 µM | < 9.85 | 53.2 µM | 52.5 µM |
| Oc1c(I)cc(Cl)c2cccnc12 [VIOFORM] | < 9.85 µM | < 9.85 | 15 µM | 14.9 µM |
| CC(C)(C)CC(C)(C)c1ccc(OCCOCC[N+](C)(C)Cc2ccccc2)cc1 [PHEMERIDE] | < 9.85 µM | < 9.85 | < 9.85 µM | < 9.85 µM |
| O=[N+]([O-])C=Cc1ccc2c(c1)OCO2 [MNS] | < 9.85 µM | < 9.85 | 20.5 µM | 27.1 µM |
| CCN1CCN(C(=O)N[C@@H](C(=O)N[C@@H]2C(=O)N3C(C(=O)O)=C(CSc4nnnn4C)CS[C@H]23)c2ccc(O)cc2)C(=O)C1=O [Cefoperazone (Cefobid)] | < 0.498 µM | < 0.498 | 4.66 µM | 6.86 µM |
| c1ccc2c(CCNc3ccc(Nc4ccncc4)cc3)c[nH]c2c1 | 61 µM | 37.1 | 104 µM | 138 µM |
| Cc1cc(N)c2ccccc2[n+]1CCCCCCCCCC[n+]1c(C)cc(N)c2ccccc21 [Dequalinium chloride hydrate] | < 9.85 µM | < 9.85 | < 9.85 µM | < 9.85 µM |
| Cc1cc(NC2CCCCC2)nc(-n2nc(C)cc2C)n1 [CyPPA] | 18.6 µM | 16.9 | 40 µM | 107 µM |
| Cc1cc(Nc2ncc(Cl)c(Nc3ccccc3S(=O)(=O)C(C)C)n2)c(OC(C)C)cc1C1CCNCC1 [Ceritinib (LDK378)] | < 9.85 µM | < 9.85 | 29 µM | 27.7 µM |
| CC1(C)S[C@@H]2[C@H](NC(=O)[C@H](N)c3ccc(O)cc3)C(=O)N2[C@H]1C(=O)O [AMOXIL] | < 9.85 µM | < 9.85 | 135 µM | 106 µM |
| CC(C)c1cc2c(c(O)c1O)[C@@]1(C(=O)O)CCCC(C)(C)[C@@H]1CC2 [CARNOSIC ACID] | < 9.85 µM | < 9.85 | 27.2 µM | 38.8 µM |
| C/C(=C\C(=O)OCCCCCCCCC(=O)O)C[C@@H]1OC[C@H](C[C@@H]2O[C@H]2[C@@H](C)[C@H](C)O)[C@@H](O)[C@H]1O [BACTROBAN] | < 9.85 µM | < 9.85 | < 9.85 µM | < 9.85 µM |
| COc1cc2c(Oc3ccc(NC(=O)C4(C(=O)Nc5ccc(F)cc5)CC4)cc3F)ccnc2cc1OCCCN1CCOCC1 | 13.2 µM | 12.1 | 41.9 µM | 57.4 µM |
| CC(C)(C)c1ccc(S(=O)(=O)/C=C/C#N)cc1 [Bay 11-7085] | < 9.85 µM | < 9.85 | < 9.85 µM | < 9.85 µM |
| COc1ccc([C@@H](C)C(=O)c2ccc(O)cc2O)cc1 [ANGOLENSIN (R)] | < 9.85 µM | < 9.85 | 22.3 µM | 27.7 µM |
| Cc1coc2c1C(=O)C(=O)c1c-2ccc2c1CCCC2(C)C [Tanshinone IIA (Tanshinone B)] | 3.7 µM and 13.9 µM | – | 7.87 µM and 35.3 µM | 41.1 µM and 32.8 µM |
